Measured values: patent US20060292158A1, “Method for the treatment of cancer using a novel pharmaceutical composition containing at least one dolastatin 10 derivative” (priority 2004, published 2006)
Counter-ions that a name gives are not always drawn. Like-named read-outs stand apart in the source and are kept apart here.

Assays:
[1] = Maximum tolerated dose (neither lethality nor more than 20% body weight loss) in mice; conditions: BALB/c nu/nu (athymic nude), mouse, in vivo, dose with neither lethality nor more than 20% body weight loss; for MTD at 14 days: oral
From the text: The in vivo evaluation procedure for anticancer drugs was based on the methods described by Plowman, et al. (1997) for xenograft models. See, “Anticancer Drug Development Guide: Preclinical Screening, Clinical Trials, and Approval, Teicher B (ed) pp. 101-125, specifically Chap. 6, “Human Tumor Xenograft Models in NCI Drug Development”, hereby incorporated by reference.
See, “Anticancer Drug Development Guide: Preclinical Screening, Clinical Trials, and Approval, Teicher B (ed) pp. 101-125, specifically Chap. 6, “Human Tumor Xenograft Models in NCI Drug Development”, hereby incorporated by reference.
The in vivo evaluation procedure for anticancer drugs was based on the methods described by Plowman, et al. (1997) for xenograft models. See, “Anticancer Drug Development Guide: Preclinical Screening, Clinical Trials, and Approval, Teicher B (ed) pp. 101-125, specifically Chap.

[2] = tested on: HT-29 human colorectal adenocarcinoma xenograft; type: in vivo; conditions: day 31
Protocol: The HT-29 human colorectal adenocarcinoma cell line was purchased from American Type Culture Collection (Rockville, MD, U.S.A.). The cells were cultured in McCoy's 5a medium (Sigma-Aldrich Corporation, MO, U.S.A.) supplemented with 10% (v/v) fetal bovine serum (Roche Diagnostics KK, Tokyo, Japan).
Sixty of 5-week-old male athymic nude mice (BALB/c nu/nu) were purchased from Charles River Japan, Inc. (Yokohama, Japan). All mice were kept for 9 days in the animal facility of Kamakura Research Laboratories of Chugai Pharmaceutical Co., Ltd. before subjection to the experiment.
Capecitabine was dissolved by the 40 milli mol/L citrate buffered-5% Gum arabic solution (pH 6.0; Chugai Pharmaceutical Co., Ltd.).
The in vivo evaluation procedure for anticancer drugs was based on the methods described by Plowman, et al. (1997) for xenograft models. See, “Anticancer Drug Development Guide: Preclinical Screening, Clinical Trials, and Approval, Teicher B (ed) pp. 101-125, specifically Chap. 6, “Human Tumor Xenograft Models in NCI Drug Development”, hereby incorporated by reference. A single cell suspension of HT-29 (1.1×10^7 cells per mouse) was inoculated subcutaneously into the right flank of each mouse. The tumor volume was estimated by using the equation ab^2/2, where a and b represent tumor length and width, respectively. Mice bearing tumors of between 172 and 282 mm^3 were selected on day 10 after tumor inoculation and were randomly divided into 7 groups, consisting of 6 mice each. Mean tumor volume and body weight of the selected mice were 217 mm^3 and 25.0 g respectively. Drug administration was initiated after mice were divided into groups. […] Capecitabine (359 mg/kg or 539 mg/kg) and its vehicle were administered orally. Tumor volume and body weight of each mouse were measured twice a week. […] Tumor growth inhibition was calculated using the equation (1-ΔT/ΔC)×100, where ΔT represents the difference in tumor volume from the initial treatment date of the treated group and ΔC represents the difference in tumor volume from the initial treatment date of the vehicle group.

[3] = tested on: Calu-6 human lung cancer xenograft; type: in vivo; conditions: 80 mg/kg (2/3 MTD) i.v. weekly x2; day 32
Protocol: The Calu-6 human lung carcinoma cell line was purchased from American Type Culture Collection (MD, U.S.A.). The cells were cultured in Eagle's MEM (Sigma-Aldrich corporation, MO, U.S.A.) supplemented with 0.1 milli mol/L Non-essential amino acids (Invitrogen corporation, CA, U.S.A.), 1 milli mol/L sodium pyruvate (Invitrogen corporation, CA, U.S.A.), and 10% (v/v) fetal bovine serum (Roche Diagnostics KK, Tokyo, Japan).
60 of 5-week-old male athymic nude mice (BALB/c nu/nu) were purchased from Charles River Japan, Inc. (Yokohama, Japan). All mice were kept for 8 days in the animal facility of Kamakura Research Laboratories of Chugai Pharmaceutical Co., Ltd. before subjection to the experiment.
(§1) The title compound was synthesized at Kamakura Research Laboratories of Chugai Pharmaceutical Co., Ltd. Irinotecan (Topotecin™, lot. No. EQAZF13) was obtained from Daiichi Pharmaceutical Co., Ltd. (Tokyo, Japan). The title compound was dissolved in dimethyl sulfoxide (DMSO) and diluted into 2.5 % DMSO solution with saline (For Injection; Ohtsuka Pharmaceutical Industry Co., Ltd., Tokushima, Japan) at the date of administration. Irinotecan was diluted with saline at the date of administration.
The in vivo evaluation procedure for anticancer drugs was based on the methods described by Plowman, et al. (1997) for xenograft models. See, “Anticancer Drug Development Guide: Preclinical Screening, Clinical Trials, and Approval, Teicher B (ed) pp. 101-125, specifically Chap. 6, “Human Tumor Xenograft Models in NCI Drug Development”, hereby incorporated by reference. A single cell suspension of Calu-6 (5.7×10^6 cells per mouse) was inoculated subcutaneously into the right flank of each mouse. The tumor volume was estimated by using the equation ab^2/2, where a and b represent tumor length and width, respectively. Mice bearing tumors of between 181 and 326 mm^3 were selected on day 11 after tumor inoculation and were randomly divided into 10 groups, consisting of 5 mice each. […] Drug administration was initiated after mice were randomized and divided into groups. The tide compound (0.375 mg/kg; 0.75 mg/kg; 1.5 mg/kg or 3 mg/kg), irinotecan (80 mg/kg) and each vehicles were administered intravenously. Tumor volume and body weight of each mouse were measured twice a week. […] Tumor growth inhibition was calculated by using the equation (1-ΔT/ΔC)×100, where ΔT represents the tumor volume difference from the initial treatment date of treated group and ΔC represents the tumor volume difference from the initial treatment date of vehicle group.

[4] = tested on: NCI-H460 human large cell lung carcinoma xenograft; test: Antitumor activity in NCI-H460 subcutaneous xenograft in athymic nude mice, combination with cisplatin (Example 4); type: in vivo; conditions: day 12
Protocol: The NCI-H460 human large cell lung carcinoma cell line was purchased from American Type Culture Collection (MD, U.S.A.). The cells were cultured in RPMI-1640 medium (cat. # R8758, lot 12K2310, exp 01/03; lot 82K2497, exp 08/03; Sigma-Aldrich corporation, MO, U.S.A.) supplemented with 10% (v/v) fetal bovine serum (cat. # 047115, lot # 31300124; Roche Diagnostics KK, Tokyo, Japan).
Sixty of 5-week-old male athymic nude mice (BALB/c nu/nu) were purchased from Charles River Japan, Inc. (Yokohama, Japan). All mice were kept for 8 days in the animal facility of Kamakura Research Laboratories of Chugai Pharmaceutical Co., Ltd. before subjection to the experiment.
as §1, with “CDDP (Randa™, lot # 924150)” for “Irinotecan (Topotecin™, lot. No. EQAZF13)”, “Nippon Kayaku” for “Daiichi Pharmaceutical”, “(for” for “(For”, “CDDP” for “Irinotecan”
The in vivo evaluation procedure for anticancer drugs was based on the methods described by Plowman, et al. (1997) for xenograft models. See, “Anticancer Drug Development Guide: Preclinical Screening, Clinical Trials, and Approval, Teicher B (ed) pp. 101-125, specifically Chap. 6, “Human Tumor Xenograft Models in NCI Drug Development”, hereby incorporated by reference. A single cell suspension of NCI-H460 (5.6×10^6 cells per mouse) was inoculated subcutaneously into the right flank of each mouse. The tumor volume was estimated by using the equation ab^2/2, where a and b represent tumor length and width, respectively. Mice bearing tumors of between 150 and 245 mm^3 were selected on day 7 after tumor inoculation and were randomly divided into 8 groups, consisting of 5 mice each. Mean tumor volume and body weight of the selected mice were 187 mm3 and 24.3 g, respectively. Drug administration was initiated after mice were divided into groups. The title compound (2 mg/kg or 3 mg/kg), CDDP (5 mg/kg or 6.7 mg/kg) and each vehicle were administered intravenously. Tumor volume and body weight of each mouse were measured twice a week. […] Tumor growth inhibition was calculated using the equation (1-ΔT/ΔC)×100, where ΔT represents the difference in tumor volume from the initial treatment date of the treated group and ΔC represents the difference in tumor volume from the initial treatment date of the vehicle group.

CCCCCOC(=O)Nc1nc(=O)n([C@@H]2O[C@H](C)[C@@H](O)[C@H]2O)cc1F [capecitabine, reference compound]
MTD at 14 days ([1]; 359 mg/kg): 359 mg/kg | MTD at 14 days [1]: 539 mg/kg | reduction of tumor growth ([2]; 359 mg/kg (2/3 MTD) p.o. daily for 14 days): 32% | reduction of tumor growth ([2]; 539 mg/kg (MTD) p.o. daily for 14 days): 50%

CCc1c2c(nc3ccc(OC(=O)N4CCC(N5CCCCC5)CC4)cc13)-c1cc3c(c(=O)n1C2)COC(=O)[C@]3(O)CC [irinotecan, irinotecan hydrochloride, reference compound]
MTD [1]: 120 mg/kg | tumor growth inhibition [3]: 68%

N.N.[Cl][Pt][Cl] [CDDP, cis-diamminedichloroplatinum, reference compound]
reduction of tumor growth ([4]; 5 mg/kg (1/2 MTD) i.v. on first day): 56% | reduction of tumor growth ([4]; 6.7 mg/kg (2/3 MTD) i.v. on first day): 66%
